In ChEMBL document CHEMBL1201862, “PubChem BioAssay data set” (2004):
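Growth conditions: 96-well plates. Treatment: test compound, 48 hours, 5 concentrations. Analysis: linear interpolation between bracketing concentrations; unreached endpoints set to highest concentration. Abbreviation: GI50, concentration required for 50% inhibition of growth.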 The source made the active and inactive calls. No stated cut-off is given here; in the data, active = GI50 up to about 1.1 µM and inactive = higher.

Assays:
Test in all cases: NCI-60 cell line screen, 48 h
[1] = system: 786-0
[2] = system: A498
[3] = system: A549
[4] = system: ACHN
[5] = system: CAKI-1
[6] = system: CCRF-CEM
[7] = system: COLO 205
[8] = system: DLD-1
[9] = system: DMS-114
[10] = system: EKVX
[11] = system: HCC 2998
[12] = system: HCT-116
[13] = system: HCT-15
[14] = system: HL-60
[15] = system: HOP-62
[16] = system: HT-29
[17] = system: IGROV-1
[18] = system: K562
[19] = system: KM-20L2
[20] = system: KM12
[21] = system: LOX IMVI
[22] = system: LXFL 529
[23] = system: M14
[24] = system: M19-MEL
[25] = system: MOLT-4
[26] = system: Malme-3M
[27] = system: NCI-H226
[28] = system: NCI-H23
[29] = system: NCI-H460
[30] = system: NCI-H522
[31] = system: OVCAR-3
[32] = system: OVCAR-4
[33] = system: OVCAR-5
[34] = system: OVCAR-8
[35] = system: RPMI-8226
[36] = system: SF-268
[37] = system: SF-295
[38] = system: SF-539
[39] = system: SK-MEL-2
[40] = system: SK-MEL-5
[41] = system: SK-OV-3
[42] = system: SN12C
[43] = system: SNB-19
[44] = system: SNB-78
[45] = system: SR
[46] = system: SW-620
[47] = system: U-251
[48] = system: UACC-257
[49] = system: UACC-62
[50] = system: UO-31

CCCCC#COS(=O)(=O)c1ccc(C)cc1
GI50 [1]: > 100 µM (inactive) | GI50 [2]: > 100 µM (inactive) | GI50 [3]: 44.9 µM (inactive) | GI50 [4]: 71.1 µM (inactive) | GI50 [5]: > 100 µM (inactive) | GI50 [6]: 30.5 µM (inactive) | GI50 [7]: > 100 µM (inactive) | GI50 [8]: 57.9 µM (inactive) | GI50 [9]: 44.1 µM (inactive) | GI50 [10]: 56.6 µM (inactive) | GI50 [11]: > 100 µM (inactive) | GI50 [12]: 82.8 µM (inactive) | GI50 [13]: > 100 µM | GI50 [14]: > 100 µM (inactive) | GI50 [15]: > 100 µM (inactive) | GI50 [16]: > 100 µM (inactive) | GI50 [17]: > 100 µM (inactive) | GI50 [18]: 45.3 µM (inactive) | GI50 [19]: 75.9 µM (inactive) | GI50 [20]: 84.9 µM (inactive) | GI50 [21]: > 100 µM (inactive) | GI50 [22]: 64 µM (inactive) | GI50 [23]: > 100 µM (inactive) | GI50 [24]: 69.7 µM (inactive) | GI50 [25]: 88.1 µM (inactive) | GI50 [26]: > 100 µM (inactive) | GI50 [27]: 14.7 µM (inactive) | GI50 [28]: 92.9 µM (inactive) | GI50 [29]: 79.3 µM (inactive) | GI50 [30]: 54.1 µM (inactive) | GI50 [31]: > 100 µM (inactive) | GI50 [32]: 65.9 µM (inactive) | GI50 [33]: > 100 µM (inactive) | GI50 [34]: > 100 µM (inactive) | GI50 [35]: 46.2 µM (inactive) | GI50 [36]: > 100 µM (inactive) | GI50 [37]: > 100 µM (inactive) | GI50 [38]: > 100 µM (inactive) | GI50 [39]: > 100 µM (inactive) | GI50 [40]: > 100 µM (inactive) | GI50 [41]: 88.7 µM (inactive) | GI50 [42]: > 100 µM (inactive) | GI50 [43]: > 100 µM (inactive) | GI50 [44]: > 100 µM (inactive) | GI50 [45]: 53 µM (inactive) | GI50 [46]: > 100 µM (inactive) | GI50 [47]: 86.5 µM (inactive) | GI50 [48]: > 100 µM (inactive) | GI50 [49]: > 100 µM (inactive) | GI50 [50]: > 100 µM (inactive)
